Our source for the Ki values is paper doi:10.1101/559534v1 (biorxiv, 2019).

Test [1] addresses T1, ATRR (ATR1R2) (Aspergillus nidulans, UniProt A0A1U8QWA2).
T1 sequence (A0A1U8QWA2 1-1270): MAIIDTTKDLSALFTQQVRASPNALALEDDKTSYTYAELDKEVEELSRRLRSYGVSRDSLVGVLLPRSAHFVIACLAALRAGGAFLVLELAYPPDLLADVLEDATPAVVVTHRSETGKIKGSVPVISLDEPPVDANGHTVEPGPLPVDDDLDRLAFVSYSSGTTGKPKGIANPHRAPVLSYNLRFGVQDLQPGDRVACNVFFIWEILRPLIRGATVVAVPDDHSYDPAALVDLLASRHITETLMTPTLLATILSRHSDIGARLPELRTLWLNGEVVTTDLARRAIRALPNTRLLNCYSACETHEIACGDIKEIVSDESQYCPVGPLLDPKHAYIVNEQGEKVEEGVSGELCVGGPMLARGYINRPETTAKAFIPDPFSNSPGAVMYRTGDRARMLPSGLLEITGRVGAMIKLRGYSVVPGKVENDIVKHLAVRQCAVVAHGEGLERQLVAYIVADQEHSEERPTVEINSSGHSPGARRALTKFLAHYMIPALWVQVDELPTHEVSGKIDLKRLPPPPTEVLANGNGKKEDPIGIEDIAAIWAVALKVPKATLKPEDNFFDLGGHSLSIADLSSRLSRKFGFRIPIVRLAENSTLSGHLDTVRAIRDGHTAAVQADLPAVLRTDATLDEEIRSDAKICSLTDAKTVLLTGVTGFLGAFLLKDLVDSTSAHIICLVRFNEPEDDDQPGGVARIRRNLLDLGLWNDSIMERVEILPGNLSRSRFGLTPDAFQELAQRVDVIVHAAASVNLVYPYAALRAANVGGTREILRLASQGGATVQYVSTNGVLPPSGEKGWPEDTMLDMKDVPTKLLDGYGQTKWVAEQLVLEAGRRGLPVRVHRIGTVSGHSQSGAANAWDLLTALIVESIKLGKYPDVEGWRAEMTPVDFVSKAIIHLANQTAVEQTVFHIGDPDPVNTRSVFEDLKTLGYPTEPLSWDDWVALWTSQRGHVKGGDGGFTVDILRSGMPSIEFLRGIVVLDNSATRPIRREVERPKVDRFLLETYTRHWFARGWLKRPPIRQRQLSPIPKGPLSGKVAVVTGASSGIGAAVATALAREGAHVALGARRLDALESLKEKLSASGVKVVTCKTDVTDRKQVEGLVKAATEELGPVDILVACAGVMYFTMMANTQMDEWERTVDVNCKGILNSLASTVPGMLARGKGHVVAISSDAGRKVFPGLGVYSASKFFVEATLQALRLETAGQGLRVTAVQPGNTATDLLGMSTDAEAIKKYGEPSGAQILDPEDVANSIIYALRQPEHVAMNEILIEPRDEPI
The test is described as follows: carboxylic acid reductase steady-state kinetics. In kind it is biochemical. As to conditions: substrate inhibition.

For test [2], the target named is T1, ATRR (ATR1R2). Nature of the test: glycine betaine reductase inhibition kinetics. In kind it is biochemical.

As for `CN(C)CC(=O)O` [N,N-Dimethylglycine], the Ki at ATRR (ATR1R2) [1] was determined as 48 ± 9 mM. `CN(C)C` [N(CH3)3H+Cl-]: the Ki on ATRR (ATR1R2) [2] was 2.6 ± 0.5 mM. The same measure, in the same setting: then `C[N+](C)(C)CCO` [Choline], with 0.27 ± 0.03 mM.
